# Results from ChEMBL document CHEMBL4138123, “Design, synthesis and biological evaluation of novel pyrazolochalcones as potential modulators of PI3K/Akt/mTOR pathway and inducers of apoptosis in breast cancer cells” (Eur J Med Chem, 2017).
# Key:
# SK-OV-3 = test: Cytotoxicity against human SKOV3 cells assessed as cell growth at 1 uM after 48 hrs by sulforhodamine B assay relative to control; assay type: functional; conditions: SK-OV-3, 48 h, read-out: Activity
# NCI-H322M = test: Cytotoxicity against human NCI-H322M cells assessed as growth inhibition after 48 hrs by sulforhodamine B assay; assay type: functional
# OVCAR-8 = test: Cytotoxicity against human OVCAR8 cells assessed as cell growth at 100 uM after 48 hrs by sulforhodamine B assay relative to control; assay type: functional; conditions: OVCAR-8, 48 h, read-out: Activity
# SK-MEL-5 = test: Cytotoxicity against human SK-MEL-5 cells assessed as cell growth at 10 uM after 48 hrs by sulforhodamine B assay relative to control; assay type: functional; conditions: SK-MEL-5, 48 h, read-out: Activity
# K562 [1] = test: Cytotoxicity against human K562 cells assessed as cell growth at 100 uM after 48 hrs by sulforhodamine B assay relative to control; assay type: functional; conditions: K562, 48 h, read-out: Activity
# HCT-15 = test: Cytotoxicity against human HCT15 cells assessed as growth inhibition after 48 hrs by sulforhodamine B assay; assay type: functional; conditions: HCT-15, 48 h
# RXF 393 = test: Cytotoxicity against human RXF393 cells assessed as cell growth at 10 uM after 48 hrs by sulforhodamine B assay relative to control; assay type: functional; conditions: RXF 393, 48 h, read-out: Activity
# SNB-19 = test: Cytotoxicity against human SNB19 cells assessed as cell growth at 1 uM after 48 hrs by sulforhodamine B assay relative to control; assay type: functional; conditions: SNB-19, 48 h, read-out: Activity
# NCI-H23 [2] = test: Cytotoxicity against human NCI-H23 cells assessed as cell growth at 1 uM after 48 hrs by sulforhodamine B assay relative to control; assay type: functional; conditions: NCI-H23, 48 h, read-out: Activity
# A549 = test: Cytotoxicity against human A549/ATCC cells assessed as cell growth at 10 uM after 48 hrs by sulforhodamine B assay relative to control; assay type: functional; conditions: A549, 48 h, read-out: Activity
# MDA-MB-231 [3] = test: Cytotoxicity against human MDA-MB-231 cells assessed as growth inhibition after 48 hrs by MTT assay; assay type: functional, cell-based; conditions: MDA-MB-231, 48 h
# MDA-MB-435 = test: Cytotoxicity against human MDA-MB-435 cells assessed as growth inhibition after 48 hrs by sulforhodamine B assay; assay type: functional; conditions: MDA-MB-435, 48 h
# SF-268 [4] = test: Cytotoxicity against human SF268 cells assessed as cell growth at 0.1 uM after 48 hrs by sulforhodamine B assay relative to control; assay type: functional; conditions: SF-268, 48 h, read-out: Activity
# MOLT-4 [5] = test: Cytotoxicity against human MOLT4 cells assessed as cell growth at 100 uM after 48 hrs by sulforhodamine B assay relative to control; assay type: functional; conditions: MOLT-4, 48 h, read-out: Activity
# NCI-H23 [6] = test: Cytotoxicity against human NCI-H23 cells assessed as cell growth at 100 uM after 48 hrs by sulforhodamine B assay relative to control; assay type: functional; conditions: NCI-H23, 48 h, read-out: Activity
# OVCAR-4 = test: Cytotoxicity against human OVCAR4 cells assessed as cell growth at 10 uM after 48 hrs by sulforhodamine B assay relative to control; assay type: functional; conditions: OVCAR-4, 48 h, read-out: Activity
# MDA-MB-231 [7] = test: Cytotoxicity against human MDA-MB-231 cells assessed as cell growth at 0.1 uM after 48 hrs by sulforhodamine B assay relative to control; assay type: functional; conditions: MDA-MB-231, 48 h, read-out: Activity
# HL-60(TB) = test: Cytotoxicity against human HL-60(TB) cells assessed as cell growth at 10 uM after 48 hrs by sulforhodamine B assay relative to control; assay type: functional; conditions: HL-60, 48 h, read-out: Activity
# KM12 = test: Cytotoxicity against human KM12 cells assessed as cell growth at 100 uM after 48 hrs by sulforhodamine B assay relative to control; assay type: functional; conditions: KM12, 48 h, read-out: Activity
# MOLT-4 [8] = test: Cytotoxicity against human MOLT4 cells assessed as cell growth at 10 uM after 48 hrs by sulforhodamine B assay relative to control; assay type: functional; conditions: MOLT-4, 48 h, read-out: Activity
# 786-0 = test: Cytotoxicity against human 786-0 cells assessed as cell growth at 100 uM after 48 hrs by sulforhodamine B assay relative to control; assay type: functional; conditions: 786-0, 48 h, read-out: Activity
# Malme-3M = test: Cytotoxicity against human MALME-3M cells assessed as cell growth at 1 uM after 48 hrs by sulforhodamine B assay relative to control; assay type: functional; conditions: read-out: Activity
# T47D = test: Cytotoxicity against human T47D cells assessed as cell growth at 100 uM after 48 hrs by sulforhodamine B assay relative to control; assay type: functional; conditions: read-out: Activity
# OVCAR-5 = test: Cytotoxicity against human OVCAR5 cells assessed as cell growth at 100 uM after 48 hrs by sulforhodamine B assay relative to control; assay type: functional; conditions: OVCAR-5, 48 h, read-out: Activity
# COLO 205 = test: Cytotoxicity against human COLO205 cells assessed as cell growth at 0.1 uM after 48 hrs by sulforhodamine B assay relative to control; assay type: functional; conditions: COLO 205, 48 h, read-out: Activity
# SW-620 = test: Cytotoxicity against human SW620 cells assessed as growth inhibition after 48 hrs by sulforhodamine B assay; assay type: functional; conditions: SW-620, 48 h
# M14 [9] = test: Cytotoxicity against human M14 cells assessed as cell growth at 0.01 uM after 48 hrs by sulforhodamine B assay relative to control; assay type: functional; conditions: M14, 48 h, read-out: Activity
# K562 [10] = test: Cytotoxicity against human K562 cells assessed as cell growth at 1 uM after 48 hrs by sulforhodamine B assay relative to control; assay type: functional; conditions: K562, 48 h, read-out: Activity
# NCI-H522 = test: Cytotoxicity against human NCI-H522 cells assessed as cell growth at 100 uM after 48 hrs by sulforhodamine B assay relative to control; assay type: functional; conditions: NCI-H522, 48 h, read-out: Activity
# TK-10 = test: Cytotoxicity against human TK10 cells assessed as cell growth at 100 uM after 48 hrs by sulforhodamine B assay relative to control; assay type: functional; conditions: TK-10, 48 h, read-out: Activity
# M14 [11] = test: Cytotoxicity against human M14 cells assessed as cell growth at 100 uM after 48 hrs by sulforhodamine B assay relative to control; assay type: functional; conditions: M14, 48 h, read-out: Activity
# HCC 2998 [12] = test: Cytotoxicity against human HCC2998 cells assessed as growth inhibition after 48 hrs by sulforhodamine B assay; assay type: functional; conditions: HCC 2998, 48 h
# SF-268 [13] = test: Cytotoxicity against human SF268 cells assessed as cell growth at 10 uM after 48 hrs by sulforhodamine B assay relative to control; assay type: functional; conditions: SF-268, 48 h, read-out: Activity
# M14 [14] = test: Cytotoxicity against human M14 cells assessed as cell growth at 0.1 uM after 48 hrs by sulforhodamine B assay relative to control; assay type: functional; conditions: M14, 48 h, read-out: Activity
# HCC 2998 [15] = test: Cytotoxicity against human HCC2998 cells assessed as cell growth at 0.1 uM after 48 hrs by sulforhodamine B assay relative to control; assay type: functional; conditions: HCC 2998, 48 h, read-out: Activity
# SR = test: Cytotoxicity against human SR cells assessed as cell growth at 1 uM after 48 hrs by sulforhodamine B assay relative to control; assay type: functional; conditions: read-out: Activity
structure (smiles),measurement,setting,value
COc1ccc(C(=O)/C=C/c2cc(-c3cc(OC)c(OC)c(OC)c3)n[nH]2)cc1,growth at 1 µM,SK-OV-3,98%
same,TGI,NCI-H322M,4.07 µM
same,growth at 100 µM,OVCAR-8,-16%
same,growth at 10 µM,SK-MEL-5,-89%
same,growth at 100 µM,K562 [1],1%
same,LC50,HCT-15,> 100 µM
same,TGI,HCT-15,4.37 µM
same,growth at 10 µM,RXF 393,-97%
same,growth at 1 µM,SNB-19,79%
same,growth at 1 µM,NCI-H23 [2],95%
same,growth at 10 µM,A549,-15%
same,IC50,MDA-MB-231 [3],0.95 µM
same,LC50,MDA-MB-435,> 100 µM
same,TGI,MDA-MB-435,5.69 µM
same,growth at 0.1 µM,SF-268 [4],91%
same,growth at 100 µM,MOLT-4 [5],-4%
same,growth at 100 µM,NCI-H23 [6],-23%
same,growth at 10 µM,OVCAR-4,-7%
same,growth at 0.1 µM,MDA-MB-231 [7],94%
same,growth at 10 µM,HL-60(TB),-47%
same,growth at 100 µM,KM12,-74%
same,growth at 10 µM,MOLT-4 [8],-20%
same,growth at 100 µM,786-0,-48%
same,growth at 1 µM,Malme-3M,93%
same,growth at 100 µM,T47D,-9%
same,growth at 100 µM,OVCAR-5,-59%
same,growth at 0.1 µM,COLO 205,101%
same,TGI,SW-620,3.47 µM
same,growth at 0.01 µM,M14 [9],100%
same,growth at 1 µM,K562 [10],89%
same,growth at 100 µM,NCI-H522,-62%
same,growth at 100 µM,TK-10,-20%
same,growth at 100 µM,M14 [11],-7%
same,LC50,HCC 2998 [12],6.48 µM
same,TGI,HCC 2998 [12],3.4 µM
same,growth at 10 µM,SF-268 [13],-35%
same,growth at 0.1 µM,M14 [14],97%
same,growth at 0.1 µM,HCC 2998 [15],97%
same,growth at 1 µM,SR,22%
COc1cc2c(cc1OC)C(=O)/C(=C/c1cc(-c3ccc4c(c3)OCO4)n[nH]1)C2,growth at 1 µM,SK-OV-3,109%
same,GI50,NCI-H322M,1.54 µM
same,TGI,NCI-H322M,3.01 µM
same,CC50,NCI-H322M; read-out: LC50 (the source's name),5.87 µM
same,growth at 100 µM,OVCAR-8,-94%
same,growth at 10 µM,SK-MEL-5,-98%
same,growth at 100 µM,K562 [1],4%
same,GI50,HCT-15,1.12 µM
same,LC50,HCT-15,7.07 µM
same,TGI,HCT-15,2.81 µM
same,growth at 10 µM,RXF 393,-78%
same,growth at 1 µM,SNB-19,84%
same,growth at 1 µM,NCI-H23 [2],92%
same,growth at 10 µM,A549,-30%
same,IC50,MDA-MB-231 [3],1.6 µM
same,GI50,MDA-MB-435,1.73 µM
same,LC50,MDA-MB-435,6.18 µM
same,TGI,MDA-MB-435,3.27 µM
same,growth at 0.1 µM,SF-268 [4],96%
same,growth at 100 µM,MOLT-4 [5],-17%
same,growth at 100 µM,NCI-H23 [6],-78%
same,growth at 10 µM,OVCAR-4,-96%
same,growth at 0.1 µM,MDA-MB-231 [7],99%
same,growth at 10 µM,HL-60(TB),-29%
same,growth at 100 µM,KM12,-80%
same,growth at 10 µM,MOLT-4 [8],-18%
same,growth at 100 µM,786-0,-93%
same,growth at 1 µM,Malme-3M,88%
same,growth at 100 µM,T47D,-93%
same,growth at 100 µM,OVCAR-5,-86%
same,growth at 0.1 µM,COLO 205,105%
same,GI50,SW-620,1.35 µM
same,"LC50 (lethal concentration, 50% net cell kill)",SW-620,8.96 µM
same,TGI,SW-620,3.47 µM
same,growth at 0.01 µM,M14 [9],99%
same,growth at 1 µM,K562 [10],62%
same,growth at 100 µM,NCI-H522,-92%
same,growth at 100 µM,TK-10,-95%
same,growth at 100 µM,M14 [11],-80%
same,GI50,HCC 2998 [12],1.88 µM
same,LC50,HCC 2998 [12],6.29 µM
same,TGI,HCC 2998 [12],3.44 µM
same,growth at 10 µM,SF-268 [13],-75%
same,growth at 0.1 µM,M14 [14],96%
same,growth at 0.1 µM,HCC 2998 [15],97%
same,growth at 1 µM,SR,38%
